According to US12227500B2, “Substituted pyrrolo[2,3-b]pyridines for suppressing toxic endoplasmic reticulum stress” (THE TRUSTEES OF COLUMBIA UNIVERSITY IN THE CITY OF NEW YORK, priority 2018, dated 2025):
Like-named read-outs stand apart in the source and are kept apart here.

Legend:
[1] = tested on: human ES motor neurons carrying the ALS-causing SOD1^A4V mutation; assay: cells; type: cell-based; settings: 72 h, 72 h; for EC50 / Emax: CPA 33 μM; for viability at 1 µM: CPA (33 μM) + compound (1 μM), read-out: Motor Neuron Survival, % untreated; for Emax: read-out: Emax (MN survival % untreated)
Protocol: Next, survival assays were performed with all the analogs at once to generate a low-variability dataset. All compounds were evaluated at concentrations ranging from 0.1-3.0 μM (five-point dilution) in three technical replicates and two biological replicates.

MLK1/MAP3K9 = target: T1, MLK1/MAP3K9 (Homo sapiens, UniProt P80192); assay: Radiolabeled ATP kinase assay (Reaction Biology Corp.), MLK1; type: biochemical; settings: [Cmpd] 0.1 μM, 10 μM ATP
T1 construct: purchased Reaction Biology Corp
T1 sequence (P80192 whole entry): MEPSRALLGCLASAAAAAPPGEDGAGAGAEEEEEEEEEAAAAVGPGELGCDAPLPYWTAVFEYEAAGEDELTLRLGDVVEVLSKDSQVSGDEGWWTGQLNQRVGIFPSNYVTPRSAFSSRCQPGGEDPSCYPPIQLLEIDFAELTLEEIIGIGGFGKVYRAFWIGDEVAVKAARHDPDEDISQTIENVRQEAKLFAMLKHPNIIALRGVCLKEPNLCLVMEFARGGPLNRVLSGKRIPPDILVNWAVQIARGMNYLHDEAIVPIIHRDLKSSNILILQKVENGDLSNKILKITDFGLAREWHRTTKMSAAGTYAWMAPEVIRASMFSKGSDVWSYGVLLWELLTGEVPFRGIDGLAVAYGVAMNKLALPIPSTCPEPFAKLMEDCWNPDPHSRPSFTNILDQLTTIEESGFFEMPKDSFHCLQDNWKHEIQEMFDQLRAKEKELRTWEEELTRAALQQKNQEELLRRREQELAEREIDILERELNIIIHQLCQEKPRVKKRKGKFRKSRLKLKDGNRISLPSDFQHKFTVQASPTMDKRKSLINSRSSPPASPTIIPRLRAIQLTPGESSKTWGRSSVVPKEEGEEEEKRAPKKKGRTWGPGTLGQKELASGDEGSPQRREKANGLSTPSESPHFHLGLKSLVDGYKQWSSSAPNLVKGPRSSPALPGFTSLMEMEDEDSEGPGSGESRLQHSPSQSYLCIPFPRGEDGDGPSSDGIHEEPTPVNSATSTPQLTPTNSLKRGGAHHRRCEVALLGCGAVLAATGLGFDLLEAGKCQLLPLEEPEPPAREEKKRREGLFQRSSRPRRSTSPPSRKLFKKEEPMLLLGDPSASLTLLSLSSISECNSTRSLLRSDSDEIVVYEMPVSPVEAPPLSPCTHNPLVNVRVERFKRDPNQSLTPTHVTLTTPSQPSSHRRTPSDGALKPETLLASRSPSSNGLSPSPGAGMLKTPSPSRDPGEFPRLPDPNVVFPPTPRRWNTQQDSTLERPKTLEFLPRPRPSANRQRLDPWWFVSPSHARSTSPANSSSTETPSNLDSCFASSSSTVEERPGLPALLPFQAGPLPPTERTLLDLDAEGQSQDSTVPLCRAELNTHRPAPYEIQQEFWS
Protocol: (§1) Meanwhile, the same analogs were analyzed in a radiolabeled ATP assay (10 μM ATP; Reaction Biology Corp.) to compare the extent to which they could inhibit the activity of HGK, MLK1, or MLK3 in a cell-free environment (Table S3 and S4).

MLK3/MAP3K11 = target: T2, MLK3/MAP3K11 (Homo sapiens, UniProt Q16584); assay: Radiolabeled ATP kinase assay (Reaction Biology Corp.), MLK3; type: biochemical; settings: [Cmpd] 0.1 μM; 10 μM ATP
T2 construct: purchased Reaction Biology Corp
T2 sequence (Q16584 whole entry): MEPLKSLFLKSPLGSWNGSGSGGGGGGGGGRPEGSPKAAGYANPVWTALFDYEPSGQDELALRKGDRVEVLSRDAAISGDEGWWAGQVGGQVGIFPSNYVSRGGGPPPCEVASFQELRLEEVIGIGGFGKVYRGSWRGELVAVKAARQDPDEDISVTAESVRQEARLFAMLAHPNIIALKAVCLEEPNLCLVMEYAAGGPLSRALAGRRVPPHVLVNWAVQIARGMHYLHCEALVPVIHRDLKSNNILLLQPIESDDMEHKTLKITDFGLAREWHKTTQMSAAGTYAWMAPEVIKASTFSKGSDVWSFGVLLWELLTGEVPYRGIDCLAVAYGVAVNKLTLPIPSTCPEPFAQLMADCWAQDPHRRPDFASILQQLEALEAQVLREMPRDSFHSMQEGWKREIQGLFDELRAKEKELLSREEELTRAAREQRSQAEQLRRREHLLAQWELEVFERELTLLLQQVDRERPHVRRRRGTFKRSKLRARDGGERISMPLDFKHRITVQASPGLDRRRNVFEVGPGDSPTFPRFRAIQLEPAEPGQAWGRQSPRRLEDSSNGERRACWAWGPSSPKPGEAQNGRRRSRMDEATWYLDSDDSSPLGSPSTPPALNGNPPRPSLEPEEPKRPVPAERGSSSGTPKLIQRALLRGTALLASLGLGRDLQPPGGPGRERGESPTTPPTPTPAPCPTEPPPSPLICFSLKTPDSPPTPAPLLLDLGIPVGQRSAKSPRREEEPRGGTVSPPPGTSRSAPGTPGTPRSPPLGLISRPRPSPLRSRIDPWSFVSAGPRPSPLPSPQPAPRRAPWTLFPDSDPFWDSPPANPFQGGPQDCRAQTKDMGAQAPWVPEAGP
Protocol: as §1

HGK/MAP4K4 = HGK/MAP4K4 (Homo sapiens, UniProt O95819); assay: Radiolabeled ATP kinase assay (Reaction Biology Corp.), HGK; type: biochemical; set-up: purchased Reaction Biology Corp; settings: 10 μM ATP, read-out: % Enzyme Activity (relative to DMSO controls), HGK/MAP4K4, Data 1; for remaining activity at 0.025 µM: [Cmpd] 0.025 μM; for remaining activity at 0.1 µM: [Cmpd] 0.1 μM
HGK/MAP4K4, sequence (O95819 whole entry): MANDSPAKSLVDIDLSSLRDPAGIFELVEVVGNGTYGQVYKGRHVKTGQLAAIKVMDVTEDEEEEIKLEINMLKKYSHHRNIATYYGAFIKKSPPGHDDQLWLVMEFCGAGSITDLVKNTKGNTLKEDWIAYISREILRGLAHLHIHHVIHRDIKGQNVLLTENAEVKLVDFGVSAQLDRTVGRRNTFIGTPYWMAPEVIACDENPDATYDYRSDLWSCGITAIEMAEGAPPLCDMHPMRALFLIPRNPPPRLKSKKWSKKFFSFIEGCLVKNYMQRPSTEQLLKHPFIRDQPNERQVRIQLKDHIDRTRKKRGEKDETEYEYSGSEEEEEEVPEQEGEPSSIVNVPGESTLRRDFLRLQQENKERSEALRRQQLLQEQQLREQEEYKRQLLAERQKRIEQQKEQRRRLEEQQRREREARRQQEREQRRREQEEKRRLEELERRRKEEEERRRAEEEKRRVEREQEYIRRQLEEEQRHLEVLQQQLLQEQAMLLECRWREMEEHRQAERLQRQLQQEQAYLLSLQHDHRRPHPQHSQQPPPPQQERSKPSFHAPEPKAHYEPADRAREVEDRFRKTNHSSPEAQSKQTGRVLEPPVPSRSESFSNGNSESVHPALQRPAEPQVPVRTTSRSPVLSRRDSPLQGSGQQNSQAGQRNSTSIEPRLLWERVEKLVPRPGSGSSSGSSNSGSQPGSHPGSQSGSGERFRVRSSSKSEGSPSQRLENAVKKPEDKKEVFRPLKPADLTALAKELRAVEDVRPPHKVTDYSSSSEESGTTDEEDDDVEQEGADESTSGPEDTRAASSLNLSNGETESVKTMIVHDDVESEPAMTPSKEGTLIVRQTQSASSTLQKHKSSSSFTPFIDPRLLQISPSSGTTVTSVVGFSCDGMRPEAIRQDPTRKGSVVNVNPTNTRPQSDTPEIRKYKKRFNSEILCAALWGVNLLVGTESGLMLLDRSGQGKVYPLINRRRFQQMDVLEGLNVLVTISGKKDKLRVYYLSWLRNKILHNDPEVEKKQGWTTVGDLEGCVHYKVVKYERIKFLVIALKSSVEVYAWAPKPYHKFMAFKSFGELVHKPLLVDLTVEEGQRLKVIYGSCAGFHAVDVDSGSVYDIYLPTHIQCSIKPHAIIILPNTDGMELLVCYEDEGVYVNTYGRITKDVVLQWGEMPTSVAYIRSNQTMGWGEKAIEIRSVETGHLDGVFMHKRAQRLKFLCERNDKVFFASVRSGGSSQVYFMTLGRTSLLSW
Protocol: as §1

[2] = Homo sapiens, Neuron, read-out: EC50
[3] = read-out: % Enzyme Activity Remaining (relative to DMSO controls), MLK1/MAP3K9, Data 1
[4] = read-out: % Enzyme Activity Remaining (relative to DMSO controls), MLK1/MAP3K9, Data 2

Row | SMILES | EC50 [1, 2] | viability at 1 µM ([1]; Homo sapiens, Neuron) | Emax ([1]; Homo sapiens, Neuron) | remaining activity at 0.1 µM (MLK1/MAP3K9; [3]) | remaining activity at 0.1 µM (MLK1/MAP3K9; [4]) | % Enzyme Activity Remaining (relative to DMSO controls), MLK3/MAP3K11, Data 1 (MLK3/MAP3K11) | % Enzyme Activity Remaining (relative to DMSO controls), MLK3/MAP3K11, Data 2 (MLK3/MAP3K11) | remaining activity at 0.025 µM (HGK/MAP4K4) | remaining activity at 0.1 µM (HGK/MAP4K4) | EC50 [1]
1 | CN1CCN(Cc2ccc(-c3cnc4[nH]cc(-c5cccc(OCc6ccccc6)c5)c4c3)cc2)CC1 [Compound 7ar, 3-(3-(Benzyloxy)phenyl)-5-(4-((4-methylpiperazin-1-yl)methyl)phenyl)-1H-pyrrolo[2,3-b]pyridine] | 583 nM | 37.4% | 37.4% | 70.1% | 68% | 44.17% | 45.09% | 55.5% | 27.4% | 
2 | CN1CCN(Cc2ccc(-c3cnc4[nH]cc(-c5ccc(F)c(C(=O)NCc6ccco6)c5)c4c3)cc2)CC1 [Compound 7av, 2-Fluoro-N-(furan-2-ylmethyl)-5-(5-(4-((4-methylpiperazin-1-yl)methyl)phenyl)-1H-pyrrolo[2,3-b]pyridin-3-yl)benzamide] | 1050 nM | 34.5% | 53.5% | 86% | 84.2% | 84.24% | 86.99% | 88.8% | 51.2% | 
3 | CN1CCN(Cc2ccc(-c3cnc4[nH]cc(-c5ccc(NC(=O)NC6CCCCC6)cc5)c4c3)cc2)CC1 [Compound 7aw, 1-Cyclohexyl-3-(4-(5-(4-((4-methylpiperazin-1-yl)methyl)phenyl)-1H-pyrrolo[2,3-b]pyridin-3-yl)phenyl)urea] | 406 nM | 27.5% | 27.5% | 79.8% | 79.4% | 65.23% | 66.67% | 85.4% | 58.5% | 
4 | C[C@@H](NC(=O)Nc1cccc(-c2c[nH]c3ncc(-c4ccc(CN5CCN(C)CC5)cc4)cc23)c1)c1ccccc1 [Compound 7ax, (R)-1-(3-(5-(4-((4-methylpiperazin-1-yl)methyl)phenyl)-1H-pyrrolo[2,3-b]pyridin-3-yl)phenyl)-3-(1-phenylethyl)urea] | 1440 nM | 17.4% | 35.5% | 93.5% | 92.3% | 90.99% | 86.58% | 93.6% | 78.7% | 
5 | CN1CCN(Cc2ccc(-c3cnc4[nH]cc(-c5cccc(NC(=O)NCc6ccco6)c5)c4c3)cc2)CC1 [Compound 7ay, 1-(Furan-2-ylmethyl)-3-(3-(5-(4-((4-methylpiperazin-1-yl)methyl)phenyl)-1H-pyrrolo[2,3-b]pyridin-3-yl)phenyl)urea] | 91.2 nM | 4.58% | 9.29% | 88.5% | 91.8% | 84.43% | 83.57% | 93.8% | 79% | 
6 | COCCNC(=O)Nc1cccc(-c2c[nH]c3ncc(-c4ccc(CN5CCN(C)CC5)cc4)cc23)c1 [Compound 7az, 1-(2-Methoxyethyl)-3-(3-(5-(4-((4-methylpiperazin-1-yl)methyl)phenyl)-1H-pyrrolo[2,3-b]pyridin-3-yl)phenyl)urea] | 2990 nM | 22.9% | 51.5% | 79% | 78.5% | 79.28% | 80.78% | 87.1% | 65% | 
7 | CCOc1ccc(-c2c[nH]c3ncc(-c4ccc(CN5CCN(C)CC5)cc4)cc23)cn1 [Compound 7b, 3-(6-Ethoxypyridin-3-yl)-5-(4-((4-methylpiperazin-1-yl)methyl)phenyl)-1H-pyrrolo[2,3-b]pyridine] | 496 nM | 52.3% | 52.3% | 89.2% | 87.8% | 86.71% | 86.95% | 77.6% | 42.8% | 
8 | CN1CCN(Cc2ccc(-c3cnc4[nH]cc(-c5cccc6c5oc5ccccc56)c4c3)cc2)CC1 [Compound 7c, 3-(Dibenzo[b,d]furan-4-yl)-5-(4-((4-methylpiperazin-1-yl)methyl)phenyl)-1H-pyrrolo[2,3-b]pyridine] |  | 7.84% | 10.4% | 88.3% | 86.8% | 90.01% | 93.44% | 99.3% | 81.6% | Ambiguous
9 | CN1CCN(Cc2ccc(-c3cnc4[nH]cc(-c5ccc(N)cc5)c4c3)cc2)CC1 [Compound 7e, 4-(5-(4-((4-Methylpiperazin-1-yl)methyl)phenyl)-1H-pyrrolo[2,3-b]pyridin-3-yl)aniline] | 228 nM | 96.1% | 111% | 51.7% | 54% | 51.43% | 54.29% | 24% | 7.41% | 
10 | CN1CCN(Cc2ccc(-c3cnc4[nH]cc(-c5csc6ccccc56)c4c3)cc2)CC1 [Compound 7f, 3-(Benzo[b]thiophen-3-yl)-5-(4-((4-methylpiperazin-1-yl)methyl)phenyl)-1H-pyrrolo[2,3-b]pyridine] | 338 nM | 68.3% | 68.3% | 81.1% | 76.5% | 68.84% | 73.51% | 23.2% | 4.89% | 
11 | CN1CCN(Cc2ccc(-c3cnc4[nH]cc(-c5cccc(N)c5)c4c3)cc2)CC1 [Compound 7h, 3-(5-(4-((4-Methylpiperazin-1-yl)methyl)phenyl)-1H-pyrrolo[2,3-b]pyridin-3-yl)aniline] | 177 nM | 106% | 115% | 48.8% | 43.2% | 62.91% | 63.31% | 98.8% | 87.4% | 
12 | CN1CCN(Cc2ccc(-c3cnc4[nH]cc(-c5ccc(F)c(C(=O)O)c5)c4c3)cc2)CC1 [Compound 7i, 2-Fluoro-5-(5-(4-((4-methylpiperazin-1-yl)methyl)phenyl)-1H-pyrrolo[2,3-b]pyridin-3-yl)benzoic acid] |  | 7.82% | 13.3% | 80.2% | 79.4% | 57.91% | 50.75% | 85.3% | 54.6% | Ambiguous
